The text below walks through data of patent publication US20240166635A1, “AMINOHETEROARYL KINASE INHIBITORS” (Anrui Biomedical Technology (Guangzhou) Co.,Ltd., priority 2020, published 2024).

Assay type in all cases: biochemical
In one experiment the target is CDK1/CyclinB (Homo sapiens (Human), UniProt P06493). Put plainly: CDK1/CyclinB kinase inhibitory activity (Caliper mobility shift). The following applies: read-out: CDK1/Cyclin B1 IC50.
In another experiment the target is CDK2/CyclinE1 (Homo sapiens (Human), UniProt P24941). Put plainly: CDK2/CyclinE1 kinase inhibitory activity (Caliper mobility shift). Particulars: read-out: CDK2/Cyclin El IC50.
For the next experiment, the target named is CDK9/CyclinT1 (Homo sapiens (Human), UniProt P50750). Put plainly: CDK9/CyclinT1 kinase inhibitory activity (Caliper mobility shift). Particulars: read-out: CDK9/Cyclin T1 IC50.
Sequence of CDK9/CyclinT1 (P50750 whole entry): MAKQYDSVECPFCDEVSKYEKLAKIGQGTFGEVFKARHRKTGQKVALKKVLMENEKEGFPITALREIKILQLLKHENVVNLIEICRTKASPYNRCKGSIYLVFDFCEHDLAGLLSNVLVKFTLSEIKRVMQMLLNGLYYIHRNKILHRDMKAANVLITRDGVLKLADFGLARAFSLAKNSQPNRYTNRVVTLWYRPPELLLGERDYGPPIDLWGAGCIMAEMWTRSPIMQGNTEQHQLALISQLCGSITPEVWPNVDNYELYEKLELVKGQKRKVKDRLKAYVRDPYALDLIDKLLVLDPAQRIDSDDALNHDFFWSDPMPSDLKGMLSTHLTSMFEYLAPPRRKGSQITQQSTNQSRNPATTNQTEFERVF
Sequence of CDK9/CyclinT1 (O60563 whole entry partner): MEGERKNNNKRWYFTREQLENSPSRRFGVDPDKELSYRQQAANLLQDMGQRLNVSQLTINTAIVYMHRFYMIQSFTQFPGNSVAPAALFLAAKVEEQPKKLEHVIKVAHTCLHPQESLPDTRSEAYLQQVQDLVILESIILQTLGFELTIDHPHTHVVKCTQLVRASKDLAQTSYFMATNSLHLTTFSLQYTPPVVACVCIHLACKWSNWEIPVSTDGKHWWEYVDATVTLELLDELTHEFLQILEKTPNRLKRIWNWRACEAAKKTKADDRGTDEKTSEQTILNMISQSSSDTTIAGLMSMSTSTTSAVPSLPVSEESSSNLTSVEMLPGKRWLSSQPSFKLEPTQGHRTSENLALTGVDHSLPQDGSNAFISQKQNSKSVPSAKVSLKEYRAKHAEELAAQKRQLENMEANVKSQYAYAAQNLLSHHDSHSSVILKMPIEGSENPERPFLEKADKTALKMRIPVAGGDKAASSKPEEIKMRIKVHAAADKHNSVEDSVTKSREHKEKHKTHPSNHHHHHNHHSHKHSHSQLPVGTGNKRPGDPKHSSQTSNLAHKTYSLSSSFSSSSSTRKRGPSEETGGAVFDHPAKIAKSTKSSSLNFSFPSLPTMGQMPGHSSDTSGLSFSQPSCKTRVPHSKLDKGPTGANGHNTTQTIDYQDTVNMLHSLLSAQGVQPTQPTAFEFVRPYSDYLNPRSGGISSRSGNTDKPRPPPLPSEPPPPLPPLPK

Sequence of CDK1/CyclinB (P06493 whole entry): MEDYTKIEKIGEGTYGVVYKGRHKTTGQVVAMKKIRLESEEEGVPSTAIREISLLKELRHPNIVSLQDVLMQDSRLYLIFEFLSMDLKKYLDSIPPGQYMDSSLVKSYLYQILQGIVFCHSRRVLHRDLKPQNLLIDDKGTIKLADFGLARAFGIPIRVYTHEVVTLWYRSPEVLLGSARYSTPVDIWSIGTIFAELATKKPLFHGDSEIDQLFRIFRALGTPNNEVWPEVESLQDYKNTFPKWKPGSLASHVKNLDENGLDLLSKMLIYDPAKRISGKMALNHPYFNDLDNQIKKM
Sequence of CDK1/CyclinB (P14635 whole entry partner): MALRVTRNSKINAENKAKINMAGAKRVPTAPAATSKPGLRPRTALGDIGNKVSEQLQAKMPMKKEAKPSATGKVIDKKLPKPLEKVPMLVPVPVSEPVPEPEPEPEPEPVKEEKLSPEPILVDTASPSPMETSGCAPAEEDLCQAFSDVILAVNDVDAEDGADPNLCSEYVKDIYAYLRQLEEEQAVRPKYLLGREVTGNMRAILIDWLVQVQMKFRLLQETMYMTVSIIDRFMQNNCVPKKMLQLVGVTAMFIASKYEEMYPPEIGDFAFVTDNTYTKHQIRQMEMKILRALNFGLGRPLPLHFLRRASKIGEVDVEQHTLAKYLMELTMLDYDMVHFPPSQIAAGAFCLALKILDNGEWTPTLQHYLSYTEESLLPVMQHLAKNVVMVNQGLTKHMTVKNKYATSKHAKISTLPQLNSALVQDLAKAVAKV

Consider `N#Cc1cnc(Nc2ccc(S(N)(=O)=O)cc2)nc1N1CCCC(c2ccccc2)C1` (racemic) [Example 84], for which the IC50 at CDK1/CyclinB and at CDK2/CyclinE1 was 10 to 100 nM in each case.
Regarding `CNS(=O)(=O)c1ccc(Nc2ncc(C(F)(F)F)c(O[C@H]3CCOC[C@H]3O)n2)cc1` (single isomer, unassigned) [Example 100b, cis-4-((4-((3-hydroxytetrahydro-2H-pyran-4-yl)oxy)-5-(trifluoromethyl)pyrimidin-2-yl)amino)-N-(methyl-d3)benzenesulfonamide], the IC50 at CDK9/CyclinT1 was in the range of 100 to 1000 nM.
`[2H]C([2H])([2H])NS(=O)(=O)c1ccc(Nc2ncc(C(F)(F)F)c(O[C@H]3CCOC[C@H]3O)n2)cc1` (single isomer, unassigned) [Example 100b, cis-4-((4-((3-hydroxytetrahydro-2H-pyran-4-yl)oxy)-5-(trifluoromethyl)pyrimidin-2-yl)amino)-N-(methyl-d3)benzenesulfonamide]: the IC50 fell in the range of 100 to 1000 nM at CDK1/CyclinB and 10 to 100 nM on CDK2/CyclinE1.
`[2H]C([2H])([2H])NS(=O)(=O)c1ccc(Nc2ncc(C(F)(F)F)c(O[C@H]3CCOC[C@H]3O)n2)c(F)c1` (single isomer, unassigned) [Example 101b, cis-3-fluoro-4-((4-((3-hydroxytetrahydro-2H-pyran-4-yl)oxy)-5-(trifluoromethyl)pyrimidin-2-yl)amino)-N-(methyl-d3)benzenesulfonamide]: at CDK2/CyclinE1, the IC50 is 10 to 100 nM.
Turning to `C=C(F)c1cnc(Nc2ccc(S(=O)(=O)NC)cc2)nc1O[C@@H]1CCC[C@@H]1O` (single isomer, unassigned) [Example 135b, cis-4-((5-(1-fluorovinyl)-4-((2-hydroxycyclopentyl)oxy)pyrimidin-2-yl)amino)-N-(methyl-d3)benzenesulfonamide], the IC50 on CDK9/CyclinT1 was 100 to 1000 nM.
As for `[2H]C([2H])([2H])NS(=O)(=O)c1ccc(Nc2ncc(C(=C)F)c(O[C@@H]3CCC[C@@H]3O)n2)cc1` (single isomer, unassigned) [Example 135b, cis-4-((5-(1-fluorovinyl)-4-((2-hydroxycyclopentyl)oxy)pyrimidin-2-yl)amino)-N-(methyl-d3)benzenesulfonamide], the figures for the IC50 at CDK1/CyclinB and on CDK2/CyclinE1 were 100 to 1000 nM and 10 to 100 nM, respectively.
Taken in the same sequence, the figures for `[2H]C([2H])([2H])NS(=O)(=O)c1ccc(Nc2ncc(CC)c(OC3COCC3(C)O)n2)cc1` (single isomer, unassigned) [Example 150b] were at least 1000 nM and 100 to 1000 nM.
Turning to `CC1(COc2nc(NC3CCN(S(=O)(=O)c4cn[nH]c4)CC3)ncc2C#N)CCCC1` [Example 8, 2-((1-((1H-pyrazol-4-yl)sulfonyl)piperidin-4-yl)amino)-4-((1-methylcyclopentyl)methoxy)pyrimidine-5-carbonitrile], the IC50 on CDK9/CyclinT1 is 100 to 1000 nM.
Turning to `N#Cc1cnc(Nc2ccc(S(N)(=O)=O)cc2)nc1OCC1CCCCC1` [Example 13], the IC50 on CDK1/CyclinB and on CDK2/CyclinE1 was 10 to 100 nM in each case.
Turning to `N#Cc1cnc(Nc2ccc(S(N)(=O)=O)cc2)nc1OCC1(O)CCCCC1` [Example 16], the IC50 on CDK1/CyclinB is 100 to 1000 nM; on CDK2/CyclinE1, 10 to 100 nM.
Consider `CO[C@H]1CCCN(c2nc(Nc3ccc(S(N)(=O)=O)cc3)ncc2C#N)C1` [Example 80], for which the IC50 at CDK1/CyclinB is 100 to 1000 nM; at CDK2/CyclinE1 it was 10 to 100 nM.
For `C[C@@H]1CCCCN1c1nc(Nc2ccc(S(N)(=O)=O)cc2)ncc1F` [Example 87], in that order: 10 to 100 nM and below 10 nM.
Turning to `C[C@H]1CCCCN1c1nc(Nc2ccc(S(N)(=O)=O)cc2)ncc1F` [Example 88], the IC50 on CDK1/CyclinB was 10 to 100 nM; at CDK2/CyclinE1 it was below 10 nM.
For `CS(=N)(=O)c1ccc(Nc2ncc(C#N)c(N3CCCCC3)n2)cc1` (stereo not drawn) [Example 90], in that order: 100 to 1000 nM and 10 to 100 nM.
